The assay deals with T1, human GnRH receptor (Homo sapiens, UniProt P30968).
T1 construct: expressed in transfected cells; host or cells: HEK 293 (hGnRH-R/293, from Dr. Stuart Sealfon)
T1 sequence (P30968 1-328): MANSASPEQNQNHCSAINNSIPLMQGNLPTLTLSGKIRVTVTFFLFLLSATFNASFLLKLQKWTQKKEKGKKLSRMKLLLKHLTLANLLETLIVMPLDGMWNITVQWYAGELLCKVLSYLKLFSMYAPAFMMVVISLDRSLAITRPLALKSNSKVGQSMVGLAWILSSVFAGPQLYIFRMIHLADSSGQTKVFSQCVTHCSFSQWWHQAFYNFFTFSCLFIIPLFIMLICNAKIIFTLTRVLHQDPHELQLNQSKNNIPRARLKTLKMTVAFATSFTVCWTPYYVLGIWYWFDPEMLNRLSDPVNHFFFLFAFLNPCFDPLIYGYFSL
The experiment in a line: Radioligand binding, 125I-GnRH-A displacement, membranes of HEK 293 cells with human GnRH receptor. The procedure: All compounds were diluted in 1% DMSO (final assay concentration) in binding assay buffer. […] Reactions were terminated by rapid filtration onto 96-well Packard GF/C filters soaked in 0.1% polyethyleneimine. Filters were washed three times with PBS buffer, dried and counted on a Packard Topcount by liquid scintillation counting.
Assay conditions were identical for assessing compound activities at other species. […] IC50 values for control peptides and test compounds were calculated utilizing GraphPad Prism™ software.
Crude compounds were tested using the competitive radioligand binding assay described above.
The reaction mixture was vortexed and incubated for 1 min at room temperature. After one min, the mixture was vortexed and allowed to incubate for an additional minute. 2 ml of 0.5 M acetic acid/1% BSA was added to the reaction tube and the mixture was added to a C18 Sep-Pak cartridge. The cartridge was washed with subsequent washes of 5 ml H2O and 5 ml 0.5M acetic acid and then eluted with 5×1 ml of 60% CH3CN/40% 0.5M acetic acid. The eluate was diluted with 3× volume of HPLC buffer A (0.1% TFA in H2O) and loaded onto a C18 column. The iodinated product was eluted over 20-25 min with a gradient of 25-100% CH3CN containing 0.1% TFA. The radioactive fractions (750 ed/fraction) are collected into clean polypropylene tubes containing 100 μl of 10% BSA. Fractions were assessed for biological activity by radioligand binding.
S%R is the substrate remaining.

The mark [1] stands for this setting: 1 uM, read-out: % Inhib. @ 1 uM hGnRH.
The mark [2] stands for this setting: 1 h, repeat of % Inhib. at 1 uM, read-out: Repeats @ 1 uM hGnRH.

Read-outs that look alike come from different tables or passages of the source.

As to `Cc1cc2c(cc1Cc1ccc(C(=O)NCC(c3ccccc3)c3ccccc3)o1)C(C)(C)CCC2(C)C`, the inhibition at 1 µM is, setting by setting: under setting [1], -21%; under setting [2], -26%.
For the compound `Cc1cc2c(cc1Cc1ccc(C(=O)NC3=NN(c4c(Cl)cc(Cl)cc4Cl)C(=O)C3)o1)C(C)(C)CCC2(C)C`, the inhibition at 1 µM by setting is: under setting [1], -29%; under setting [2], -31%.
The corresponding values for `Cc1cc2c(cc1Cc1ccc(C(=O)Nc3ccccc3C(=O)Nc3cnccn3)o1)C(C)(C)CCC2(C)C` are -27% and -29%.
The corresponding values for `Cc1cc2c(cc1Cc1ccc(C(=O)NCCCNCc3ccc(Cl)cc3)o1)C(C)(C)CCC2(C)C` are -10% and -8%.
The corresponding values for `CC(=O)C1CCN(C(=O)c2ccc(Cc3cc4c(cc3C)C(C)(C)CCC4(C)C)o2)CC1` are 59% and 66%.
For the compound `Cc1cc2c(cc1Cc1ccc(C(=O)Nc3nccc(Nc4cc(C(F)(F)F)cc(C(F)(F)F)c4)n3)o1)C(C)(C)CCC2(C)C`, the inhibition at 1 µM is -29% under setting [1] and -30% under setting [2].
The like results for `Cc1cc2c(cc1Cc1ccc(C(=O)NCc3cccc4c3Cc3ccccc3-4)o1)C(C)(C)CCC2(C)C` were, in that order, -21% and -23%.
The like results for `Cc1cc2c(cc1Cc1ccc(C(=O)NCCCCCC(=O)O)o1)C(C)(C)CCC2(C)C` were, in that order, -12% and -9%.
`Cc1cc2c(cc1Cc1ccc(C(=O)NCc3cc4c5ccccc5n(Cc5cc(Cl)ccc5Cl)c4cn3)o1)C(C)(C)CCC2(C)C`: the inhibition at 1 µM reads like this: under setting [1], -34%; under setting [2], -38%.
The like results for `Cc1cc2c(cc1Cc1ccc(C(=O)NCCCCCN3CCOCC3)o1)C(C)(C)CCC2(C)C` were, in that order, -14% and -5%.
The corresponding values for `Cc1cc2c(cc1Cc1ccc(C(=O)N3CCN(c4nccc(NCC5CCCO5)n4)CC3)o1)C(C)(C)CCC2(C)C` (stereo not shown) are 22% and 25%.
The like results for `Cc1cc2c(cc1Cc1ccc(C(=O)NCCc3ccc(-c4ccccc4)cc3)o1)C(C)(C)CCC2(C)C` were, in that order, -17% and -31%.
`Cc1cc2c(cc1Cc1ccc(C(=O)NCCNCCN3CCCC3)o1)C(C)(C)CCC2(C)C`: the inhibition at 1 µM by setting is: under setting [1], -5%; under setting [2], 0%.
The corresponding values for `Cc1cc2c(cc1Cc1ccc(C(=O)NC3CCCCC3Cc3nccc(NCC4CCCO4)n3)o1)C(C)(C)CCC2(C)C` (stereo not shown) are -21% and -5%.
The like results for `Cc1cc2c(cc1Cc1ccc(C(=O)NC3CCCCC3Cc3ccnc(NCC4CCCO4)n3)o1)C(C)(C)CCC2(C)C` (stereo not shown) were, in that order, 11% and 13%.
Turning to `Cc1cc2c(cc1Cc1ccc(C(=O)NCC3CCCC(CNc4cccc(NCC5CCCO5)n4)C3)o1)C(C)(C)CCC2(C)C` (stereo not shown), the inhibition at 1 µM under setting [1] turned out to be 84% and the inhibition at 1 µM under setting [2] is 89%.
The corresponding values for `Cc1cc2c(cc1Cc1ccc(C(=O)NCCc3c[nH]c4ccc(OCc5ccccc5)cc34)o1)C(C)(C)CCC2(C)C` are -6% and -7%.
The corresponding values for `Cc1cc2c(cc1Cc1ccc(C(=O)NCCNc3cccc(NCC4CCCO4)n3)o1)C(C)(C)CCC2(C)C` (stereo not shown) are 18% and 22%.
For `Cc1cc2c(cc1Cc1ccc(C(=O)NC3CCN(Cc4ccccc4)CC3)o1)C(C)(C)CCC2(C)C`, the inhibition at 1 µM is, setting by setting: under setting [1], -12%; under setting [2], 14%.
The corresponding values for `Cc1cc2c(cc1Cc1ccc(C(=O)NC(CO)C(O)c3ccccc3)o1)C(C)(C)CCC2(C)C` (stereo not shown) are -1% and 12%.
The like results for `Cc1cc2c(cc1Cc1ccc(C(=O)N(Cc3ccccc3)Cc3ccccc3)o1)C(C)(C)CCC2(C)C` were, in that order, -2% and 3%.
The corresponding values for `Cc1cc2c(cc1Cc1ccc(C(=O)N(C)Cc3ccccc3)o1)C(C)(C)CCC2(C)C` are -7% and 4%.
Take `Cc1cc2c(cc1Cc1ccc(C(=O)NC(CO)Cc3ccc(Cl)cc3)o1)C(C)(C)CCC2(C)C` (stereo not shown): the inhibition at 1 µM under setting [1] worked out at 16% and the inhibition at 1 µM under setting [2] turned out to be 3%.
The corresponding values for `Cc1cc2c(cc1Cc1ccc(C(=O)NC(Cc3ccccc3)c3ccccc3)o1)C(C)(C)CCC2(C)C` (stereo not shown) are 13% and 19%.
The like results for `Cc1cc2c(cc1Cc1ccc(C(=O)NC(CO)c3ccccc3)o1)C(C)(C)CCC2(C)C` (stereo not shown) were, in that order, 17% and 26%.
The corresponding values for `Cc1cc2c(cc1Cc1ccc(C(=O)N[C@H](CO)c3ccccc3)o1)C(C)(C)CCC2(C)C` are 15% and 26%.
Turning to `Cc1cc2c(cc1Cc1ccc(C(=O)N[C@H](C)[C@@H](O)c3ccccc3)o1)C(C)(C)CCC2(C)C`, the inhibition at 1 µM was found to be 19% under setting [1] and 25% under setting [2].
The like results for `Cc1cc2c(cc1Cc1ccc(C(=O)N(C)[C@@H](C)[C@H](C)c3ccccc3)o1)C(C)(C)CCC2(C)C` were, in that order, -7% and 4%.
As to `Cc1cc2c(cc1Cc1ccc(C(=O)N(C)[C@@H](C)[C@@H](O)c3ccccc3)o1)C(C)(C)CCC2(C)C`, the inhibition at 1 µM runs as follows: under setting [1], -11%; under setting [2], -9%.
As for `Cc1cc2c(cc1Cc1ccc(C(=O)N(C)[C@H](C)[C@H](O)c3ccccc3)o1)C(C)(C)CCC2(C)C`, the inhibition at 1 µM reads like this: under setting [1], -10%; under setting [2], -6%.
The like results for `Cc1cc2c(cc1Cc1ccc(C(=O)N(C)[C@H](C)[C@@H](O)c3ccccc3)o1)C(C)(C)CCC2(C)C` were, in that order, 20% and 23%.
The corresponding values for `COc1ccc(C(O)C(CO)NC(=O)c2ccc(Cc3cc4c(cc3C)C(C)(C)CCC4(C)C)o2)cc1` (stereo not shown) are -11% and 24%.
The like results for `Cc1cc2c(cc1Cc1ccc(C(=O)NCc3ccccc3OC(F)(F)F)o1)C(C)(C)CCC2(C)C` were, in that order, 1% and 41%.
For the compound `COc1cccc(OC)c1CNC(=O)c1ccc(Cc2cc3c(cc2C)C(C)(C)CCC3(C)C)o1`, the inhibition at 1 µM is -3% under setting [1] and 2% under setting [2].
On to `Cc1cc2c(cc1Cc1ccc(C(=O)N(C)CCc3ccccn3)o1)C(C)(C)CCC2(C)C`, for which the inhibition at 1 µM runs as follows: under setting [1], -11%; under setting [2], -7%.
The corresponding values for `Cc1cc2c(cc1Cc1ccc(C(=O)N(CCc3ccccc3)Cc3ccccc3O)o1)C(C)(C)CCC2(C)C` are -20% and -30%.
The like results for `CCN(Cc1ccncc1)C(=O)c1ccc(Cc2cc3c(cc2C)C(C)(C)CCC3(C)C)o1` were, in that order, 10% and 2%.
The corresponding values for `COc1ccccc1CC(C)N(C)C(=O)c1ccc(Cc2cc3c(cc2C)C(C)(C)CCC3(C)C)o1` (stereo not shown) are -7% and 15%.
As for `CCCCN(Cc1ccccc1)C(=O)c1ccc(Cc2cc3c(cc2C)C(C)(C)CCC3(C)C)o1`, the inhibition at 1 µM was -7% under setting [1] and 9% under setting [2].
As to `Cc1cc2c(cc1Cc1ccc(C(=O)N(CCO)Cc3ccccc3)o1)C(C)(C)CCC2(C)C`, the inhibition at 1 µM is, setting by setting: under setting [1], -10%; under setting [2], -5%.
The corresponding values for `Cc1cc2c(cc1Cc1ccc(C(=O)N(CC(O)c3ccccc3)C3CCCCC3)o1)C(C)(C)CCC2(C)C` (stereo not shown) are -12% and -9%.
The like results for `COc1ccc(C(NC(=O)c2ccc(Cc3cc4c(cc3C)C(C)(C)CCC4(C)C)o2)c2ccc(OC)cc2)cc1` were, in that order, 31% and 42%.
The corresponding values for `Cc1cc2c(cc1Cc1ccc(C(=O)NCCC(=O)NC(c3ccccc3)c3ccccc3)o1)C(C)(C)CCC2(C)C` are -23% and -8%.
On to `Cc1cc2c(cc1Cc1ccc(C(=O)NCCCC(=O)NC(c3ccccc3)c3ccccc3)o1)C(C)(C)CCC2(C)C`, for which the inhibition at 1 µM was 17% under setting [1] and 28% under setting [2].
`Cc1cc2c(cc1Cc1ccc(C(=O)NCc3ccccc3Sc3ccccc3CO)o1)C(C)(C)CCC2(C)C`: the inhibition at 1 µM by setting is: under setting [1], 51%; under setting [2], 54%.
The corresponding values for `Cc1cc2c(cc1Cc1ccc(C(=O)NCCCN(CCO)CCO)o1)C(C)(C)CCC2(C)C` are 35% and 36%.
For `Cc1cc2c(cc1Cc1ccc(C(=O)N3CCN(c4ccc(Cl)cc4)C(C)C3)o1)C(C)(C)CCC2(C)C` (stereo not shown), the inhibition at 1 µM is -18% under setting [1] and -7% under setting [2].

The record behind these values is patent US7101878B1 (Agouron Pharmaceuticals, Inc., priority 1998, dated 2006).
